Row | logP | SMILES
1 | 2.21 | Fc1cccc(F)c1
2 | 2.92 | Fc1cccc(Br)c1
3 | 3.7 | Clc1cccc(Br)c1
4 | 2.26 | COc1ccc(F)cc1
5 | 2.78 | Fc1ccc(Cl)cc1
6 | 2.15 | CC(=O)c1cccc(C)c1
7 | 2.58 | Cc1ccc(F)cc1
8 | 3.03 | COc1cccc(Br)c1
9 | 3.08 | Fc1ccc(Br)cc1
10 | 2.36 | COc1cccc(F)c1
11 | 2.13 | Fc1ccc(F)cc1
12 | 3.41 | Cc1cccc(Br)c1
13 | 0.83 | CC(=O)c1cccc(N)c1
14 | 2.47 | CC(=O)c1cccc(Br)c1
15 | 2.75 | Cc1cccc(F)c1
16 | 3.42 | Cc1ccc(Br)cc1
17 | 2.04 | COc1ccc(OC)cc1
18 | 3.05 | COc1ccc(Br)cc1

Row | SMILES | logP
19 | Clc1ccc(Br)cc1 | 3.54
